From patent US5616684A, “Cyclic peptides and use thereof” (priority 1991, dated 1997) come the findings set out here.

Non-standard residues stand in square brackets, D forms with d. Residues, ends and D or L forms follow the SMILES beside them. d(aIle) = CC[C@H](C)[C@@H](N)C(=O)O; Hyp = O=C(O)[C@@H]1C[C@@H](O)CN1; d2Thi = N[C@H](Cc1cccs1)C(=O)O; dPhg = N[C@@H](C(=O)O)c1ccccc1

Test [1] relates to ETB receptor (guinea pig kidney crude receptor membrane fraction). Description: ETB Radio Receptor Assay *2. The test is classed as binding. To be noted: relative activity (Example 8 given as 100), 125I-endothelin-1, 37° C., 90 minutes. The protocol: ETB Radio Receptor Assay *2
In the endothelin radio receptor assay, guinea pigs' kidneys were used. Guinea pigs (Std Hartrey, male 250 g, Japan SLC Ltd.) were made to have a cerebral concussion and sacrificed by bleeding from carotid arteries to pick up the kidneys and removed fat therefrom to prepare the kidneys. The obtained kidneys were sliced and homogenized by politron homogenizer in 20 ml of 50 mM Tris-HCl buffer [pH 7.4; 20 mM NaHCO3, 0.1 mM PMSF (Phenylmethylsulfonyl Fluoride), 1 mM EDTA (Ethylenediaminetetraacetic acid)] per one kidney. The homogenized kidney was applied to a centrifugation at 1,000×g for 15 minutes and the supernatant was further applied to a centrifugation for 20 minutes at 30,000×g. The resulting precipitate was twice washed with 50 mM Tris-HCl buffer (pH 7.4) containing 0.1 mM PMSF, 1 mM EDTA. The resultant was stored at -80 ° C. as a crude receptor membrane fraction and was used as the suspension in the following buffer when necessary.
740 Bq of ^125 I-endothelin-1 (81.4 TBq/mmol, Du Pont, USA) as a radio ligand, the crude membrane fraction (2.1 μg protein) and samples were added to the following buffer. The reaction was performed at 37° C., for 90 minutes in 0.2 ml of the buffer [50 mM Tris-HCl buffer (pH 7.4) containing 0.1 mM PMSF, 1 mM EDTA, 0.2% bovine serum albumin].
The reaction was stopped by fast filtration on a glass filter (GF/B, Wattman, USA) by Cell Harvestor (290 PHD, Cambridge-Technology, Great Britain), and the filter was three times washed with 50 mM Tris-HCl buffer (pH 7.4). Radio activity remained on the filter was assayed by a gamma counter.

Test [2] deals with T1, endothelin receptor B (ETB) (Bos taurus, UniProt P28088).
T1 construct: A membrane fraction prepared from the bovine brain; from tissue; host or cells: bovine brain membrane fraction
T1 sequence (P28088 27-441): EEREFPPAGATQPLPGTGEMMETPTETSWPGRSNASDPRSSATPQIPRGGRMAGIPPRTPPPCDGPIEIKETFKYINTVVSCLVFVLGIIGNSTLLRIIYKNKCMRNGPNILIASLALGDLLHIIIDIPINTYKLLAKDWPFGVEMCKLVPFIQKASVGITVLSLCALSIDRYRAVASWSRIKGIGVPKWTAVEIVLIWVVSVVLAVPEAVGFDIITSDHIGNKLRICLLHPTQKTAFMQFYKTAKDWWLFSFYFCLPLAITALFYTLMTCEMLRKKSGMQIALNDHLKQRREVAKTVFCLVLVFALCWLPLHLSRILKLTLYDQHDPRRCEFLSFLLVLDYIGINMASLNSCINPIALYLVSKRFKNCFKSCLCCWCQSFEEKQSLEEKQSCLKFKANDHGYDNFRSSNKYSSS
Description: Assay of Affinity for Receptor (2): Binding Activity on ETB Receptor *1. On the set-up: key: relative specific activity, Example 8 compound = 100. To be noted: specific activity, binding activity of the compound of Example 8 taken as 100; bovine brain membrane fraction, 125I labeled endothelin-1, 25° C., 1 hour. The protocol:
Assay of Affinity for Receptor (2) . . . Binding Activity on ETB Receptor *1
A membrane fraction prepared from the bovine brain was diluted to 0.15 mg/ml by using a buffer solution for assay, and 100 μl of the resulting suspension of the membrane fraction was poured into each assay tube to use for assay. To this suspension of the membrane fraction was added 2 μl of 5 nM ^125 I labeled endothelin-1 solution. Further, 3 μl of a test peptide solution was added thereto, followed by incubation at a temperature of 25° C. for 1 hour. Then, the resulting suspension was diluted with 900 μl of the buffer solution for assay cooled with ice, and thereafter separated into a supernatant and a precipitate by centrifugation at 12,000×g for 10 minutes. Cell membranes and an endothelin receptor B (ETB) embedded therein were contained in the precipitate, and radioactive iodine-labeled endothelin bound to the receptor was also recovered in the precipitate. Accordingly, the amount of radioactive iodine-labeled endothelin bound to the endothelin receptor B (ETB) was determined by measuring the amount of radioactive iodine contained in the precipitate with a gamma-ray counter. The numerical value of ETB shown in Table 1 is the value of specific activity, taking the binding activity of the compound of Example 8 on the receptor B as 100.

For test [3], the target named is T2, endothelin receptor A (ETA) (Sus scrofa, UniProt Q29010).
T2 construct: A membrane fraction prepared from the porcine heart; from tissue; host or cells: porcine heart membrane fraction
T2 sequence (Q29010 21-427): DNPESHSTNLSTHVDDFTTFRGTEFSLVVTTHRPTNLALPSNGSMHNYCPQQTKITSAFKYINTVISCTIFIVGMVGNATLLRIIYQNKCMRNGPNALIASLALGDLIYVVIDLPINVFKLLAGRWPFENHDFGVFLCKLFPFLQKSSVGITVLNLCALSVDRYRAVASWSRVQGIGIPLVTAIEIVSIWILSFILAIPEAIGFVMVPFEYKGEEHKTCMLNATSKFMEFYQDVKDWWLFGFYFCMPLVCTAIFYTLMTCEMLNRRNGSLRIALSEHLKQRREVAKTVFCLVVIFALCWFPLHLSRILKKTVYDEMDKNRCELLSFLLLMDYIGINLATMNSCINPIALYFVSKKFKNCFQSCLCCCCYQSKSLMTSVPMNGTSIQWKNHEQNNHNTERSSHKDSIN
Nature of the test: Assay of Affinity for Receptor (1): Binding Activity on ETA Receptor. More on the design: key to Binding Activity on ET Receptor (R. act.) ETA: relative binding activity; reference cyclic pentapeptide = 1.0. To be noted: porcine heart membrane fraction; for Binding Activity on ET Receptor (R. act.) ETA: specific activity, binding activity of cyclo[-D-Glu-Ala-D-aIle-Leu-D-Trp-] taken as 1.0, 125I-labeled endothelin-1, 25° C., 1 hour. As to the method: Assay of Affinity for Receptor (1) . . . Binding Activity on ETA Receptor
A membrane fraction prepared from the porcine heart was diluted to 0.15 mg/ml by using a buffer solution for assay, and 100 μl of the resulting suspension of the membrane fraction was poured into each assay tube to use for assay. To this suspension of the membrane fraction was added 2 μl of 5 nM ^125 I-labeled endothelin-1 solution. Further, 3 μl of a test peptide solution was added thereto, followed by incubation at a temperature of 25° C. for 1 hour. Then, the resulting suspension was diluted with 900 μl of the buffer solution for assay cooled with ice, and thereafter separated into a supernatant and a precipitate by centrifugation at 12,000×g for 10 minutes. Cell membranes and an endothelin receptor A (ETA) embedded therein were contained in the precipitate, and radioactive iodine-labeled endothelin combined with the receptor was also recovered in the precipitate. Accordingly, the amount of radioactive iodine-labeled endothelin combined with the endothelin receptor A (ETA) was determined by measuring the amount of radioactive iodine contained in the precipitate with a gamma-ray counter. The cyclic pentapeptide described in Japanese Patent Application No. 2-413828/1990, cyclo[-D-Glu-Ala-D-aIle-Leu-D-Trp-], was used as a control compound. The numerical value of ETA shown in Table 1 is the value of specific activity, taking the binding activity of this cyclic pentapeptide on the receptor A as 1.0. The binding activity (IC50) of this cyclic pentapeptide on the ETA receptor is 2×10^-6 M.

Consider `CC(C)C[C@@H]1NC(=O)[C@H](Cc2c[nH]c3ccccc23)NC(=O)[C@@H](CC(=O)O)NC(=O)[C@@H](Cc2c[nH]c3ccccc23)NC(=O)[C@H](CC(C)C)NC(=O)[C@@H](CC(C)C)NC1=O` [Example 35, Cyclo[--D--Asp--Trp--Leu--D--Leu--Leu--D--Trp--]] (cyclo(L[dL]L[dW][dD]W)), for which the “Binding Activity on ET Receptor (R. act.) ET8 *2” value in test [1] stood at 24. Also, the “Binding Activity on ET Receptor (R. act.) ET8 *1” value in test [2] is 52. For the same compound, in test [3], the “Binding Activity on ET Receptor (R. act.) ETA” value is given as 9.1.
On the same counts, the results for `CC(C)C[C@@H]1NC(=O)[C@@H](Cc2cccs2)NC(=O)[C@H](CC(=O)O)NC(=O)[C@H](Cc2c[nH]c3ccccc23)NC(=O)[C@@H](CC(=O)O)NC(=O)[C@@H](Cc2c[nH]c3ccccc23)NC1=O` [Example 50, Cyclo[--D--Asp--Trp--Asp--D--Thi--Leu--D--Trp--]] (cyclo(D[d2Thi]L[dW][dD]W)) are 57, 350 and 4.
The like results for `CC(C)C[C@@H]1NC(=O)[C@@H](C(C)C)NC(=O)[C@H](CC(=O)O)NC(=O)[C@H](Cc2c[nH]c3ccccc23)NC(=O)[C@@H](CC(=O)O)NC(=O)[C@@H](Cc2c[nH]c3ccccc23)NC1=O` [Example 52, Cyclo[--D--Asp--Trp--Asp--D--Val--Leu--D--Trp--]] (cyclo(D[dV]L[dW][dD]W)) were, in that order, 100, 240 and 75.
The like results for `CC(C)C[C@@H]1NC(=O)[C@@H](CC(C)C)NC(=O)[C@H](CC(=O)O)NC(=O)[C@H](CC(=O)O)NC(=O)[C@@H](CC(=O)O)NC(=O)[C@@H](Cc2c[nH]c3ccccc23)NC1=O` [Example 16, Cyclo[--D--Asp--Asp--Asp--D--Leu--Leu--D--Trp--]] (cyclo(DD[dL]L[dW][dD])) were, in that order, 34, 14 and 10.
As to `CC(C)C[C@@H]1NC(=O)[C@@H](c2ccccc2)NC(=O)[C@H](CC(=O)O)NC(=O)[C@H](Cc2c[nH]c3ccccc23)NC(=O)[C@@H](CC(=O)O)NC(=O)[C@@H](Cc2c[nH]c3ccccc23)NC1=O` [Example 45, Cyclo[--D--Asp--Trp--Asp--D--Phg--Leu--D--Trp--]] (cyclo(D[dPhg]L[dW][dD]W)), the “Binding Activity on ET Receptor (R. act.) ET8 *2” value in test [1] is recorded as 180. Moreover, the “Binding Activity on ET Receptor (R. act.) ET8 *1” value in test [2] is 74. In addition, the “Binding Activity on ET Receptor (R. act.) ETA” value in test [3] turned out to be 87.
On the same counts, the results for `CC(C)C[C@@H]1NC(=O)[C@@H](CC(C)C)NC(=O)[C@H](CCC(=O)O)NC(=O)[C@H](Cc2c[nH]c3ccccc23)NC(=O)[C@@H](CC(=O)O)NC(=O)[C@@H](Cc2c[nH]c3ccccc23)NC1=O` [Example 34, Cyclo[--D--Asp--Trp--Glu--D--Leu--Leu--D--Trp--]] (cyclo(E[dL]L[dW][dD]W)) are 44, 77 and 20.
On the same counts, the results for `CC(C)C[C@@H]1NC(=O)[C@@H](CC(C)C)NC(=O)[C@H](CC(=O)O)NC(=O)[C@@H]2CCCN2C(=O)[C@@H](CC(=O)O)NC(=O)[C@@H](Cc2c[nH]c3ccccc23)NC1=O` [Example 9, cyclo[-D-Asp-Pro-Asp-D-Leu-Leu-D-Trp-]] (cyclo(D[dL]L[dW][dD]P)) are 67, 140 and 56.
The like results for `CC(C)C[C@H]1NC(=O)[C@H](CC(=O)O)NC(=O)[C@H](C)NC(=O)[C@@H](CC(=O)O)NC(=O)[C@@H](Cc2c[nH]c3ccccc23)NC(=O)[C@H](Cc2c[nH]c3ccccc23)NC1=O` [Example 58, Cyclo[--D--Asp--Ala--Asp--D--Leu--Trp--D--Trp--]] (cyclo(AD[dL]W[dW][dD])) were, in that order, 22, 6.7 and 0.7.
Turning to `CC(C)C[C@@H]1NC(=O)[C@@H](CC(C)C)NC(=O)[C@H](CC(=O)O)NC(=O)[C@@H]2C[C@@H](O)CN2C(=O)[C@@H](CC(=O)O)NC(=O)[C@@H](Cc2c[nH]c3ccccc23)NC1=O` [Example 14, cyclo[-D-Asp-Hyp-Asp-D-Leu-Leu-D-Trp-]] (cyclo(D[dL]L[dW][dD][Hyp])), the “Binding Activity on ET Receptor (R. act.) ET8 *2” value in test [1] is listed as 120. In test [2], the “Binding Activity on ET Receptor (R. act.) ET8 *1” value is recorded as 160. In test [3], the “Binding Activity on ET Receptor (R. act.) ETA” value is listed as 70.
A word on the IC50: it is the point on the concentration scale where inhibition reaches its midpoint. On to `CC[C@H](C)[C@H]1NC(=O)[C@H](C)NC(=O)[C@@H](CCC(=O)O)NC(=O)[C@@H](Cc2c[nH]c3ccccc23)NC(=O)[C@H](CC(C)C)NC1=O` [cyclo[-D-Glu-Ala-D-aIle-Leu-D-Trp-], reference compound] (cyclo(A[d(aIle)]L[dW][dE])), for which the “Binding Activity on ET Receptor (R. act.) ET8 *1” value in test [2] is reported as “less than 1”. The same compound came in with an IC50 in test [3] (125I-labeled endothelin-1) of 2 µM. The “Binding Activity on ET Receptor (R. act.) ETA” value in test [3] came out at 1.0.
